Key:
LA-Taq DNA Polymerase = assay: PCR with LA-Taq DNA Polymerase in the presence of cationic complexes (GC-rich region, long chain); type: biochemical; settings: for DNA synthesis reaction when amplifying GC-rich region: human ApoE genomic region 441 bp, GC about 74%, 100 ng HT29 genomic DNA, complex 50, 100, 200 or 500 μM, no amplification without addition
Description: The effects on addition of the cationic complex were examined when PCR amplification was carried out with a GC-rich region as a target. As the cationic complex, there was used tris(ethylenediamine)cobalt (III) chloride, or tris(ethylenediamine)rhodium (III) trichloride•trihydrate. Template DNA was prepared from HT29 cells by conventional method. Amplified region and amplified chain lengths were human ApoE genomic region and 441 bp. The GC content of this amplified region was about 74%. As DNA polymerase, TaKaRa LA-Taq DNA Polymerase (manufactured by Takara Shuzo Co., Ltd., hereinafter referred to as “LA-Taq DNA Polymerase”) was used. The composition for a reaction mixture is shown below.
25 μl of 2×GC buffer I (manufactured by Takara Shuzo Co., Ltd.), 0.4 mM each of dATP, dCTP, dGTP and dTTP, 2.5 U of LA-Taq DNA Polymerase, 100 ng of HT29 cells genomic region, and 20 pmol each of primers ApoE-1 and ApoE-2 (a final volume being 50 μl). Each of the above cationic complex was added to the above reaction mixture so as to have a final concentration of 50, 100, 200, or 500 μM, respectively.
The reaction was carried out in Fast mode by using TaKaRa PCR Thermal Cycler Personal. As regarding the reaction conditions, the reaction in 30 cycles was carried out, wherein one cycle of reaction comprises a process consisting of 98° C., 5 seconds—64° C., 10 seconds—72° C., 40 seconds. On the other hand, as a control, the reaction for one without addition of the cationic complex was carried out in the same manner.
After the termination of the reaction, 5 μl of each of the resulting reaction mixtures was subjected to electrophoresis on 2% agarose gel containing ethidium bromide in an amount of 0.00005%. The gel after the electrophoresis was subjected to ultraviolet irradiation to visualize the band ascribed to the amplified product, whereby an amplified fragment was confirmed.
The effects on the amplified chain length when adding a cationic complex were examined. As the cationic complex, there was used hexaamminecobalt (III) trichloride. […]

KOD dash DNA Polymerase = assay: PCR with KOD dash DNA Polymerase in the presence of acidic substances; type: biochemical; settings: 12 kb fragment; 10 pg λDNA, primers λ1/λ9, 25 cycles 98°C 5 s–68°C 3 min; amount added 0.5 μg
Description: (2) The effects of the acidic substances were studied for KOD dash DNA Polymerase (manufactured by TOYOBO CO., LTD.), comprising a combination of DNA polymerase having 3′→5′ exonuclease activity, and DNA polymerase having no such activity. A reaction mixture comprising λDNA as a template, primers λ1 and λ9 as a primer pair was prepared, and PCR was carried out. In the following example, PCR was carried out in Fast mode by using TaKaRa PCR Thermal Cycler Personal (manufactured by Takara Shuzo Co., Ltd.). The composition of the reaction mixture is as follows. Composition of Reaction Mixture: exclusive buffer attached for KOD dash DNA Polymerase, 0.2 mM each of dATP, dCTP, dGTP and dTTP, 10 pg of λDNA, 2.5 U of KOD dash DNA Polymerase, and 10 pmol each of primers λ1 and λ9 (a final volume being 50 μl). Further, 1 ng of the sulfated-fucose-containing polysaccharide-F or 0.5 μg of sodium alginate was respectively added to the above reaction mixture.
The reaction was carried out in 25 cycles, wherein one cycle of reaction comprises a process consisting of 98° C., 5 seconds—68° C., 3 minutes. After the termination of the reaction, 5 μl of the resulting reaction mixture was subjected to electrophoresis on 1% agarose gel containing ethidium bromide in an amount of 0.00005%, whereby an amplified fragment was confirmed.

Molecule: NCCN.NCCN.NCCN.[Cl-].[Cl-].[Cl-].[Co+3] [[Co(H2NCH2CH2NH2)3]Cl3, tris(ethylenediamine)cobalt (III) chloride]
- DNA synthesis reaction when amplifying GC-rich region (LA-Taq DNA Polymerase): enhanced as the concentration of added complex was increased

Molecule: N.N.N.N.N.N.[Cl-].[Cl-].[Cl-].[Co+3] [[Co(NH3)6]Cl3, hexaamminecobalt (III) chloride]
- Amplification of desired long DNA fragment (LA-Taq DNA Polymerase; LA-Taq, 1 ng λDNA, primers λL36/λR485 (48.5 kb), 30 cycles 98°C 10 s–68°C 15 min, 50 μM, only slight without addition): excellently amplified

Molecule: NCCN.NCCN.NCCN.O.O.O.[Cl][Rh]([Cl])[Cl] [[Rh(H2NCH2CH2NH2)3]Cl3, tris(ethylenediamine)rhodium (III) trichloride•trihydrate]
- DNA synthesis reaction when amplifying GC-rich region (LA-Taq DNA Polymerase): enhanced as the concentration of added complex was increased as 100 μM, 200 μM and 500 μM

Molecule: sodium alginate
- Amplification Results (KOD dash DNA Polymerase): ++ (Intensive amplification being observed)

From patent US8367328B2, “Method for synthesizing DNA” (Takara Bio Inc., priority 1998, dated 2013)
